Results: patent publication US20250295657A1, “Methods and Compositions for Treatment of Inflammation and Inflammatory Conditions” (University of Pittsburgh - Of the Commonwealth System of …, priority 2022, published 2025)

Key:
VCAM1 = VCAM1 expression by RT-qPCR and immunoblot in PAECs; assay type: cell-based, human
Description: (§1) RNA extraction and quantitative polymerase chain reaction: Cells were lysed in QIAzol Lysis Reagent (Qiagen; 79306), and RNA was extracted using the Rnaeasy Kit (Qiagen; 74004). Complementary DNA was synthesized using the High-Capacity cDNA Reverse Transcription Kit (ThermoFisher; 4368813). Quantitative real-time PCR (RT-qPCR) was performed on an Applied Biosystems QuantStudio 6 Flex Real-Time PCR instrument.
(§2) Target gene expression was normalized to a housekeeping gene (i.e., ACTB) and fold change was calculated using the […] method. TaqMan™ Universal PCR Master Mix (ThermoFisher; 4305719) was used with TaqMan primers (Table 1). PowerUp™ SYBR^TM Green Master Mix (ThermoFisher; A25742) was used with custom designed primers (Table 2).
Protein extraction and immunoblotting: Cells were rinsed two times with PBS before collection in RIPA buffer containing protease and phosphatase inhibitors. Protein concentration was determined using the Pierce™ BCA Protein Assay Kit (ThermoFisher; 23225). Protein lysates were separated using 4-15% Mini-PROTEAN® TGX™ Precast Protein Gels (Bio-Rad Laboratories; 4561086) and subsequently transferred onto a PVDF membrane. Membranes were blocked with 5% BSA in Tris-buffered saline with 0.1% Tween 20 (TBST) for one hour at room temperature. Primary antibodies were subsequently added and incubated at 4° C. overnight (Table 3). The next day blots were washed three times for 10 minutes each with TBST. Blots were then incubated with the appropriate secondary antibody coupled to HRP for one hour at room temperature. After another round of TBST washing, blots were visualized using Pierce ECL reagents and images were captured using the BioRad ChemiDoc XRS+.
Application of oxysterols and bile acids: Oxysterols and bile acids were applied to human PAECs in 0.1% FBS, cell-specific media. 25-hydroxycholesterol and 7HOCA were dissolved in 100% ethanol and applied to cells at a concentration of 25 μM or 50 μM for 24 hours, respectively.

[1] = test system: chronically hypoxic mouse model; conditions: 10 mg/kg orotracheal, four weeks hypoxia
human PAECs = assay: Leukocyte and monocyte adhesion to an endothelial monolayer; assay type: cell-based
Description: Leukocyte and monocyte adhesion assays: Immune activation of the endothelium was assessed by measuring the adhesion of immune cells to an endothelial monolayer. Human PAECs were cultured until a complete monolayer was formed. Immune cells were stained with either CellTrace™ Blue or CFSE (ThermoFisher; Blue, C34568; CFSE, C34554) per the manufacturer's protocol. Between […] stained immune cells were added to each well of a six-well plate and allowed to incubate for 24 hours. Wells were then rinsed two times with PBS and subsequently fixed with 4% PFA for 15 minutes at room temperature. After fixation, the cells were rinsed once more with PBS. Fluorescent images were acquired at 4× magnification for each well. Immune cell number per image was quantified using Fiji. For the leukocyte adhesion assay, HuT 78 cutaneous T lymphocytes were used (ATCC). For the monocyte adhesion assay, THP-1 peripheral blood monocytes were used (ATCC).

[2] = test system: BA.2 spike pseudotyped virus; assay type: cell-based
CH25H = CH25H expression via RT-qPCR in PAECs under IL-1β; assay type: cell-based, human
Description: as §1, §2

[3] = biological target: ATP6V1B2-NCOA7 interactions (Homo sapiens, UniProt Q8NI08); assay: Proximity ligation assay of ATP6V1B2-NCOA7 interactions in human PAECs; assay type: cell-based; conditions: 958ami versus DMSO
Sequence of ATP6V1B2-NCOA7 interactions (P21281 whole entry partner, one chain of several): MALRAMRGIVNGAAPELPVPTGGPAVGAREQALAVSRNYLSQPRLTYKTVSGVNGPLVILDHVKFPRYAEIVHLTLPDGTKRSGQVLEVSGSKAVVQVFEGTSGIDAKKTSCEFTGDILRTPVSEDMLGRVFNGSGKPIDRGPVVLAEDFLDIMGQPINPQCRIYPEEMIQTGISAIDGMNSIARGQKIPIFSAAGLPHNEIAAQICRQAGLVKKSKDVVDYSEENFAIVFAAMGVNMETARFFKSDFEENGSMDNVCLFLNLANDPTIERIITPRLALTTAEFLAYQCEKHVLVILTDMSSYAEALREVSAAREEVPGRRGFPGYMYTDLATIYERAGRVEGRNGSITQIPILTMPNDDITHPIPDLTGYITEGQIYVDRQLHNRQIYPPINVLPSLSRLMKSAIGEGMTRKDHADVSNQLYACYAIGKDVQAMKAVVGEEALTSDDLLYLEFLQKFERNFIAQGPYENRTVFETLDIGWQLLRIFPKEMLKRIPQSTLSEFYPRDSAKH
Description: Proximity ligation assay: Direct interaction of NCOA7 with the V-ATPase subunit ATP6V1B2 was assessed using the Duolink® Proximity Ligation Assay (Millipore Sigma; DU092102). Human PAECs were plated in a Nunc™ Lab-Tek™ II Chamber Slide™ System (20,000 per well; ThermoFisher; 154453) and then fixed with 4% paraformaldehyde for 15 minutes. After permeabilization and blocking per the manufacturer's protocol, wells were incubated with either mouse anti-NCOA7 antibody (Santa Cruz Biotechnology; sc-393427), rabbit anti-ATP6V1B2 antibody (abcam; ab73404), both antibodies, or neither antibodies overnight at 4° C. (Table 3). Cells were then incubated with the PLUS and MINUS probes for one hour, ligated for 30 minutes, and amplified for 100 minutes at 37° C. Slides were then mounted with ProLong™ Gold Antifade Mountant with DAPI (ThermoFisher; P36935). Images were acquired on a Nikon A1 Confocal Microscope at the Center for Biologic Imaging at the University of Pittsburgh.

[4] = test system: monocrotaline PAH rat model; conditions: 7.5 mg/kg i.p. for 10 days
coronavirus = conditions: mouse, in vivo
NCOA7 [5] = biological target: T1, NCOA7 (Homo sapiens, UniProt Q8NI08); assay: Initial experimental validation of top scoring virtual screening compounds; conditions: preliminary data
T1 sequence (Q8NI08 1-942): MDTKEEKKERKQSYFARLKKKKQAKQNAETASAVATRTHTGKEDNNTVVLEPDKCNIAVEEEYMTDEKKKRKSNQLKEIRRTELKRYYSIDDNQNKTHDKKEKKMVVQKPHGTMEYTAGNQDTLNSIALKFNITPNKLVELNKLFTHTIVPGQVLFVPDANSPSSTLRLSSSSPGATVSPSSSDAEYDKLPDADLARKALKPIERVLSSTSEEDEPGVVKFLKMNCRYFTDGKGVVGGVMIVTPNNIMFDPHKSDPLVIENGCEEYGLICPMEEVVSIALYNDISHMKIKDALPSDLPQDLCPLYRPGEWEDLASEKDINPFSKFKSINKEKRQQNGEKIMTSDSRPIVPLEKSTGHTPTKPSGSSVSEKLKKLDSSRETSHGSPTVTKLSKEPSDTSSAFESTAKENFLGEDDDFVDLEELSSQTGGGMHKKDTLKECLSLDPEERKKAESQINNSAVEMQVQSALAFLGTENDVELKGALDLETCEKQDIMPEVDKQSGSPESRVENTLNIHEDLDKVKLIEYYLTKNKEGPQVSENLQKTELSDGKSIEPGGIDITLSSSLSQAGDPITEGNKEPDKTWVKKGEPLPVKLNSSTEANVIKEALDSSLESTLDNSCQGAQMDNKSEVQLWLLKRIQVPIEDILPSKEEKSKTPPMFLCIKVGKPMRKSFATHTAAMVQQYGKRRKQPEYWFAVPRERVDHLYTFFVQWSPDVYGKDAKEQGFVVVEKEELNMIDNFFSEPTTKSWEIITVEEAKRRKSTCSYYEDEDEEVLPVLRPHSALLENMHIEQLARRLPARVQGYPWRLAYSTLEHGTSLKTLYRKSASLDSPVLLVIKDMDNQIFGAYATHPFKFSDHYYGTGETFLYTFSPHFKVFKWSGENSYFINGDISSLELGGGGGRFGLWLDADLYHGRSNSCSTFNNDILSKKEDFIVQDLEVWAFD
Excerpt: Pharmacophore modeling: Using Pharmmaker, we identified the residues involved in high affinity interactions with each molecular probe type. The residue-probe interactions were subsequently rank-ordered based on their frequency of occurrence at the druggable hot spots in multiple runs. […] The pharmacophore model contained a hydrogen bond donor and a hydrophobic feature at the isopropylamine site and hydrophobic and aromatic rings at the two benzene sites. The pharmacophore model was then screened against the ZINC and MolPort libraries using Pharmit. The MolPort library contains 67,033,884 conformers corresponding to 4,848,718 compounds, and the ZINC library contains 122,276,899 conformers of 13,127,550 compounds. Among top-scoring compounds, MolPort-004-267-958 was selected for further refinement after initial experimental validation.

Klebsiella pneumoniae = assay: Mice infected with Klebsiella pneumoniae, acute lung injury; assay type: in vivo, mouse; conditions: 5 mg/kg IP daily for 3 days
Description: Mice were infected with Klebsiella pneumoniae. […] (FIG. 23 (A, B)) Representative images were prepared of lung tissue sections stained with H&E after 48 hours of intratracheal infection with K. pneumoniae in mice treated with DMSO compared to 958 (5 mg/kg IP dosing daily for 3 days).

NCOA7 [6] = assay: IL-1β-mediated upregulation of NCOA7 in ECs; assay type: cell-based; conditions: inhibition of STAT1/2 signaling
[7] = 25 μM for 24 hours versus ethanol

## CC(CCC[C@@H](C)[C@H]1CC[C@H]2[C@@H]3[C@H](O)CC4=CC(=O)CC[C@]4(C)[C@H]3CC[C@]12C)C(=O)O (stereo partly drawn) [7HOCA, 7α-hydroxy-3-oxo-4-cholestenoic acid]
VCAM1; 7HOCA 50 μM for 24 hours versus ethanol control
  VCAM1 expression: significantly upregulated
[1]
  CD11b+ monocyte infiltration into the vascular bed: enhanced
  RVSP: increased
  VCAM1 expression in pulmonary vessels: enhanced
  pulmonary arteriolar remodeling: increased
Human PAECs; 7HOCA-treated PAECs versus ethanol control
  adhesion of leukocytes and monocytes to a PAEC monolayer: promoting adhesion

## C[C@H](CCCC(C)(C)O)[C@H]1CC[C@H]2[C@@H]3CC=C4C[C@@H](O)CC[C@]4(C)[C@H]3CC[C@]12C [25HC, 25-hydroxycholesterol]
VCAM1; [7]
  VCAM1 expression: similarly upregulated VCAM1
Human PAECs; [7]
  immune cell adhesion to a PAEC monolayer: enhanced immune cell adhesion

## O=C(NCc1cc(=O)oc2cc(O)c(O)cc12)c1nn(-c2ccccc2)c(=O)c2ccccc12 [958ami]
VCAM1; 958ami 20 μM for 24 hours versus DMSO
  EC immunoactivation as noted by VCAM1 expression: decreased EC immunoactivation
[2]
  BA.2 spike pseudotyped virus infection: decrease
CH25H
  CH25H induction: prevented induction of CH25H
Human PAECs; 958ami-treated PAECs versus DMSO
  EC immunoactivation as noted by immune cell adhesion to a monolayer: decreased EC immunoactivation
[3]
  number of amplifications per cell (ATP6V1B2-NCOA7 interactions): significantly induced
[4]
  CD11b+ monocyte infiltration at the pulmonary vessel: attenuation
  CH25H expression in pulmonary vessels: decreased CH25H expression
  RVSP: significant reduction
  VCAM1 expression at the endothelium: attenuation
  pulmonary vessel muscularization: decreased muscularization
  right ventricular hypertrophy (Fulton's Index): significant reduction
[4]; versus vehicle
  hepatic or renal toxicity: neither had appreciable hepatic or renal toxicity

## O=C(OCc1cc(=O)oc2cc(O)c(O)cc12)c1nn(-c2ccccc2)c(=O)c2ccccc12 [compound 958]
[2]
  BA.2 spike pseudotyped virus infection: decrease
coronavirus
  mortality: significantly improved mortality
  proinflammatory markers (IL-1α, IL-1β, IFN-γ, VCAM1, and ICAM1) in lung tissue: attenuation
  viral load in lung tissue: decreased viral load
NCOA7 [5]
  effect on NCOA7 relative to the other predicted compounds: activator of NCOA7
Klebsiella pneumoniae
  inflammation by ELISA on lung homogenate of IL-1β, TNF-α, and IL-6: decreased inflammation
Klebsiella pneumoniae; H&E after 48 hours of intratracheal infection
  acute lung injury: improvement of acute lung injury

## N#CCNC(=O)c1ccc(-c2ccnc(Nc3ccc(N4CCOCC4)cc3)n2)cc1 [momelotinib]
NCOA7 [6]
  IL-1β-mediated upregulation of NCOA7: abrogated
